# Assay results from PMC6491988, “Distinct Lipid Transfer Proteins display different IgE‐binding activities that are affected by fatty acid binding” (Allergy, 2018).
# What was measured:
# rMal d 3 = molecular target: T1, rMal d 3 (Malus domestica, UniProt Q9M5X7); experiment: ANS displacement fluorescence; format: binding; conditions: 50 μmol/L ligand, protein:ligand 1:5
# T1 construct: gene MALD3; recombinant, produced in Pichia pastoris, purified
# T1 sequence (Q9M5X7 25-115): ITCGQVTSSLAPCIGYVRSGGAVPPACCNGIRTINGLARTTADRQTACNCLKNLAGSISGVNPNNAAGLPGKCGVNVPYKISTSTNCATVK
# rCor a 8 = molecular target: T2, rCor a 8 (Corylus avellana, UniProt Q9ATH2); experiment: ANS displacement fluorescence; format: binding; conditions: 50 μmol/L ligand, protein:ligand 1:5
# T2 construct: recombinant, produced in Pichia pastoris, purified
# T2 sequence (Q9ATH2 24-115): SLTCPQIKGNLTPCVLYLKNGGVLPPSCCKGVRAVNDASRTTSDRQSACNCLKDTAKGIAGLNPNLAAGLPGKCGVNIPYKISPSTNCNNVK
SMILES,% reduction of ANS fluorescence at 50 μmol/L (rMal d 3) [%],% reduction of ANS fluorescence at 50 μmol/L (rCor a 8) [%]
"CCCCCCCCCCCCCCCCCC(=O)O [STE, stearic acid]",17,–
"CCCCCCCC/C=C\CCCCCCCC(=O)O [OLE, oleic acid]",59,23
